Test results as given in patent US10597388B2, “Pyridazinone herbicides” (FMC CORPORATION, priority 2014, dated 2020).

What was measured:
Assay in all cases: Test D controlled growth environment herbicide test, pre- and postemergence
Assay type in all cases: in vivo
[1] = system: chamomile (scentless chamomile, Matricaria inodora)
How it was run: (§1)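 Species sown in silt loam and sprayed preemergence, or grown in peat-based medium to 2–18 cm (1- to 4-leaf stage) and sprayed postemergence, with compounds in non-phytotoxic solvent plus surfactant. Visual injury scored versus controls after 14–21 d in a controlled environment, 0 (no effect) to 100 (complete control).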

[2] = system: speedwell (bird's-eye speedwell, Veronica persica)
How it was run: as §1

[3] = system: blackgrass (Alopecurus myosuroides)
How it was run: as §1

[4] = system: buckwheat, wild (wild buckwheat, Polygonum convolvulus)
How it was run: as §1

[5] = system: oat, wild (wild oat, Avena fatua)
How it was run: as §1

[6] = system: Russian thistle (Salsola kali)
How it was run: as §1

[7] = system: oilseed rape (Brassica napus)
How it was run: as §1

[8] = system: pigweed (Amaranthus retroflexus)
How it was run: as §1

[9] = system: galium (catchweed bedstraw, Galium aparine)
How it was run: as §1

[10] = system: field violet (Viola arvensis)
How it was run: as §1

kochia (Kochia scoparia) = system: kochia (Kochia scoparia)
How it was run: as §1

[11] = system: bromegrass, downy (downy bromegrass, Bromus tectorum)
How it was run: as §1

[12] = system: lambsquarters (Chenopodium album)
How it was run: as §1

[13] = Postemergence, 31 g ai/ha, scale 0 to 100 (0 no effect, 100 complete control)
[14] = Postemergence, 125 g ai/ha, visual rating on scale 0 (no effect) to 100 (complete control), 14 to 21 d
[15] = Postemergence, 250 g ai/ha, scale 0 to 100 (0 no effect, 100 complete control)
[16] = postemergence, 62 g ai/ha, scale 0 to 100, 0 no effect, 100 complete control
[17] = Preemergence, 62 g ai/ha, scale 0 to 100 (0 no effect, 100 complete control)
[18] = Preemergence, 125 g ai/ha, scale 0 to 100 (0 no effect, 100 complete control)
[19] = Preemergence, 250 g ai/ha, scale 0 to 100 (0 no effect, 100 complete control)

CCOC(=O)Oc1c(C)nn(C)c(=O)c1-c1c(C)ccc2ccccc12 [Compound 73]
Chamomile plant response rating [1, 13]: 70
Plant response rating, Chamomile [1, 14]: 90
Plant response rating, Chamomile [1, 15]: 100
Plant response rating, Chamomile [1, 16]: 85
Speedwell plant response rating [2, 13]: 70
Plant response rating, Speedwell [2, 14]: 100
Plant response rating, Speedwell [2, 15]: 100
Plant response rating (scale of 0 to 100), Speedwell ([2]; Preemergence, 31 g ai/ha): 100
Plant response rating, Speedwell [2, 17]: 100
Plant response rating, Speedwell [2, 18]: 100
Plant response rating, Speedwell [2, 19]: 100
Plant response rating, Speedwell [2, 16]: 100
Blackgrass plant response rating [3, 13]: 65
Plant response rating, Blackgrass [3, 14]: 80
Plant response rating, Blackgrass [3, 15]: 90
Plant response rating (scale of 0 to 100), Blackgrass ([3]; Preemergence, 31 g ai/ha): 50
Plant response rating, Blackgrass [3, 17]: 60
Plant response rating, Blackgrass [3, 18]: 80
Plant response rating, Blackgrass [3, 19]: 85
Plant response rating, Blackgrass [3, 16]: 70
Buckwheat, Wild plant response rating [4, 13]: 95
Plant response rating, Buckwheat, Wild [4, 14]: 100
Plant response rating, Buckwheat, Wild [4, 15]: 100
Plant response rating (scale of 0 to 100), Buckwheat, Wild ([4]; Preemergence, 31 g ai/ha): 0
Plant response rating, Buckwheat, Wild [4, 17]: 0
Plant response rating, Buckwheat, Wild [4, 18]: 60
Plant response rating, Buckwheat, Wild [4, 19]: 30
Plant response rating, Buckwheat, Wild [4, 16]: 100
Oat, Wild plant response rating [5, 13]: 85
Plant response rating, Oat, Wild [5, 14]: 95
Plant response rating, Oat, Wild [5, 15]: 100
Plant response rating (scale of 0 to 100), Oat, Wild ([5]; Preemergence, 31 g ai/ha): 75
Plant response rating, Oat, Wild [5, 17]: 90
Plant response rating, Oat, Wild [5, 18]: 85
Plant response rating, Oat, Wild [5, 19]: 100
Plant response rating, Oat, Wild [5, 16]: 95
Russian Thistle plant response rating [6, 13]: 75
Plant response rating, Russian Thistle [6, 14]: 80
Plant response rating, Russian Thistle [6, 15]: 85
Plant response rating (scale of 0 to 100), Russian Thistle ([6]; Preemergence, 31 g ai/ha): 10
Plant response rating, Russian Thistle [6, 17]: 25
Plant response rating, Russian Thistle [6, 18]: 40
Plant response rating, Russian Thistle [6, 19]: 75
Plant response rating, Russian Thistle [6, 16]: 80
Oilseed Rape plant response rating [7, 13]: 65
Plant response rating, Oilseed Rape [7, 14]: 75
Plant response rating, Oilseed Rape [7, 15]: 95
Plant response rating (scale of 0 to 100), Oilseed Rape ([7]; Preemergence, 31 g ai/ha): 0
Plant response rating, Oilseed Rape [7, 17]: 5
Plant response rating, Oilseed Rape [7, 18]: 0
Plant response rating, Oilseed Rape [7, 19]: 70
Plant response rating, Oilseed Rape [7, 16]: 70
Pigweed plant response rating [8, 13]: 100
Plant response rating, Pigweed [8, 14]: 100
Plant response rating, Pigweed [8, 15]: 100
Plant response rating (scale of 0 to 100), Pigweed ([8]; Preemergence, 31 g ai/ha): 70
Plant response rating, Pigweed [8, 17]: 100
Plant response rating, Pigweed [8, 18]: 100
Plant response rating, Pigweed [8, 19]: 100
Plant response rating, Pigweed [8, 16]: 100
Galium plant response rating [9, 13]: 95
Plant response rating, Galium [9, 14]: 100
Plant response rating, Galium [9, 15]: 100
Plant response rating (scale of 0 to 100), Galium ([9]; Preemergence, 31 g ai/ha): 40
Plant response rating, Galium [9, 17]: 80
Plant response rating, Galium [9, 18]: 80
Plant response rating, Galium [9, 19]: 90
Plant response rating, Galium [9, 16]: 100
Field Violet plant response rating [10, 13]: 90
Plant response rating, Field Violet [10, 14]: 90
Plant response rating, Field Violet [10, 15]: 90
Plant response rating (scale of 0 to 100), Field Violet ([10]; Preemergence, 31 g ai/ha): 35
Plant response rating, Field Violet [10, 17]: 75
Plant response rating, Field Violet [10, 18]: 80
Plant response rating, Field Violet [10, 19]: 95
Plant response rating, Field Violet [10, 16]: 95
Kochia plant response rating (kochia (Kochia scoparia); [13]): 100
Plant response rating, Kochia (kochia (Kochia scoparia); [14]): 100
Plant response rating, Kochia (kochia (Kochia scoparia); [15]): 100
Plant response rating (scale of 0 to 100), Kochia (kochia (Kochia scoparia); Preemergence, 31 g ai/ha): 30
Plant response rating, Kochia (kochia (Kochia scoparia); [17]): 30
Plant response rating, Kochia (kochia (Kochia scoparia); [18]): 85
Plant response rating, Kochia (kochia (Kochia scoparia); [19]): 95
Plant response rating, Kochia (kochia (Kochia scoparia); [16]): 80
Bromegrass, Downy plant response rating [11, 13]: 25
Plant response rating, Bromegrass, Downy [11, 14]: 70
Plant response rating, Bromegrass, Downy [11, 15]: 85
Plant response rating (scale of 0 to 100), Bromegrass, Downy ([11]; Preemergence, 31 g ai/ha): 20
Plant response rating, Bromegrass, Downy [11, 17]: 40
Plant response rating, Bromegrass, Downy [11, 18]: 50
Plant response rating, Bromegrass, Downy [11, 19]: 90
Plant response rating, Bromegrass, Downy [11, 16]: 55
Lambsquarters plant response rating [12, 13]: 95
Plant response rating, Lambsquarters [12, 14]: 100
Plant response rating, Lambsquarters [12, 15]: 100
Plant response rating (scale of 0 to 100), Lambsquarters ([12]; Preemergence, 31 g ai/ha): 95
Plant response rating, Lambsquarters [12, 17]: 95
Plant response rating, Lambsquarters [12, 18]: 95
Plant response rating, Lambsquarters [12, 19]: 100
Plant response rating, Lambsquarters [12, 16]: 95
